Assay type in all cases: cell-based
The target of experiment [1] is T1, urate transporter 1 (URAT1) (Homo sapiens, UniProt Q96S37).
T1 construct: gene SLC22A12; human URAT1 cDNA in pCMV-SPORT6, transiently transfected into HEK293/PDZK1 cells
T1 sequence (Q96S37 1-553): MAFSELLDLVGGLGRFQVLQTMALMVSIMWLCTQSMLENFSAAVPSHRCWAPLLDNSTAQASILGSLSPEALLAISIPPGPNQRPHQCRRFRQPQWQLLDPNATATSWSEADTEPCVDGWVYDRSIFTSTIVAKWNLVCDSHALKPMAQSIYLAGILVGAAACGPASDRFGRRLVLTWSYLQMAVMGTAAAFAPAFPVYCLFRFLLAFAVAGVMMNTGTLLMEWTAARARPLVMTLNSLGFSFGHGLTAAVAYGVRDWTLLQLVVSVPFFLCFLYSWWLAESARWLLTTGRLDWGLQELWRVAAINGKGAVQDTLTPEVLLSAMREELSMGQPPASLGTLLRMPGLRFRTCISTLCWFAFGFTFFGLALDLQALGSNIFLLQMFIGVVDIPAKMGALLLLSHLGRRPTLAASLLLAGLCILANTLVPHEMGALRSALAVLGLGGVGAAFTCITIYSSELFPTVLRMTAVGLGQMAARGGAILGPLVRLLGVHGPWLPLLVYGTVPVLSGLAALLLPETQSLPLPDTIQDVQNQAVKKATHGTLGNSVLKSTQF
The experiment is described as follows: [[…]-14C]uric acid uptake in URAT1-transfected HEK293/PDZK1 cells, mock-subtracted; Lineweaver-Burk kinetics.

Experiment [2] concerns the target T1, urate transporter 1 (URAT1). The experiment is described as follows: [[…]-14C]uric acid uptake in URAT1-transfected HEK293/PDZK1 cells, single concentration […]. Particulars: read-out: Urate Uptake (% of Control).
For experiment [3] the target is unchanged. The experiment is described as follows: radiolabelled uptake, […], Lineweaver-Burk plot.

As to `COc1ccc2ccc(=O)oc2c1CC=C(C)C` [compound 1, osthol], in experiment [1], the IC50 worked out at 78.8 µM.
Take `CC(C)=CCc1c(O)ccc2ccc(=O)oc12` [osthenol]: the remaining activity at 100 µM in experiment [2] is 31 ± 4%.
As for `O=c1[nH]c(=O)c2[nH]c(=O)[nH]c2[nH]1` [uric acid], the “radiolabelled uptake, 25-200 μM, Lineweaver-Burk plot” value in experiment [3] is “The uptakes of uric acid into the cells (V) were measured, and a Lineweaver–Burk plot was made”.
